Results: the CheMixHub viscosity set

Assay: xn = mol fraction of the nth substance listed

CNCCO + CCOCCO
viscosity [mPa·s], 101.3 kPa
Conditions | 293.15 K | 298.15 K | 303.15 K | 308.15 K | 313.15 K | 318.15 K | 323.15 K
x1 = 0.118 | 2.547 | 2.249 | 1.998 | 1.785 | 1.604 | 1.448 | 1.313
x1 = 0.34 | 3.887 | 3.356 | 2.92 | 2.56 | 2.26 | 2.006 | 1.791
x1 = 0.444 | 4.708 | 4.021 | 3.464 | 3.01 | 2.634 | 2.32 | 2.057
x1 = 0.545 | 5.72 | 4.828 | 4.116 | 3.541 | 3.071 | 2.684 | 2.362
x1 = 0.737 | 8.19 | 6.751 | 5.636 | 4.76 | 4.058 | 3.492 | 3.03
x1 = 0.915 | 11.49 | 9.252 | 7.565 | 6.267 | 5.255 | 4.453 | 3.812

CC(C)CCO + CCCCO
298.15 K, 101 kPa
Conditions | viscosity [mPa·s]
x2 = 0.1033 | 3.62
x2 = 0.204 | 3.472
x2 = 0.2977 | 3.343
x2 = 0.4026 | 3.211
x2 = 0.5005 | 3.093
x2 = 0.6046 | 2.972
x2 = 0.6996 | 2.851
x2 = 0.8015 | 2.746
x2 = 0.9172 | 2.615

CCOCCO + NC=O
101 kPa
Conditions | viscosity [mPa·s]
303 K, x2 = 0.1539 | 2.222
303 K, x2 = 0.3334 | 2.676
303 K, x2 = 0.4617 | 2.99
303 K, x2 = 0.5714 | 3.203
303 K, x2 = 0.6669 | 3.477
303 K, x2 = 0.7501 | 3.576
303 K, x2 = 0.8235 | 3.446
303 K, x2 = 0.8889 | 3.199
303 K, x2 = 0.9474 | 3.008
303.15 K, x2 = 0.8063 | 3.495
313 K, x2 = 0.1539 | 1.769
313 K, x2 = 0.3334 | 2.075
313 K, x2 = 0.4617 | 2.139
313 K, x2 = 0.5714 | 2.481
313 K, x2 = 0.6669 | 2.647
313 K, x2 = 0.7501 | 2.752
313 K, x2 = 0.8235 | 2.588
313 K, x2 = 0.8889 | 2.513
323.15 K, x2 = 0.2009 | 1.415

CNC(C)=O + O
viscosity [mPa·s]
Conditions | 303.18 K | 308.15 K | 313.15 K | 318.15 K
101 kPa, x2 = 0.0402 | 3.71 | – | – | –
101 kPa, x2 = 0.1032 | 3.81 | – | – | –
101 kPa, x2 = 0.2124 | 4.02 | – | – | –
101 kPa, x2 = 0.3814 | 4.33 | – | – | –
101 kPa, x2 = 0.455 | 4.42 | – | – | –
101 kPa, x2 = 0.5528 | 4.37 | – | – | –
101 kPa, x2 = 0.7092 | 3.7 | – | – | –
101 kPa, x2 = 0.8121 | 2.89 | – | – | –
101.33 kPa, x1 = 0.0301 | – | 0.997 | 0.893 | 0.812
101.33 kPa, x1 = 0.06 | – | 1.293 | 1.137 | 1.026
101.33 kPa, x1 = 0.1002 | – | 1.693 | 1.465 | 1.301
101.33 kPa, x1 = 0.15 | – | 2.24 | 1.902 | 1.651
101.33 kPa, x1 = 0.1999 | – | 2.766 | 2.326 | 2.001
101.33 kPa, x1 = 0.245 | – | 3.108 | 2.626 | 2.257
101.33 kPa, x1 = 0.3006 | – | 3.402 | 2.882 | 2.483
101.33 kPa, x1 = 0.3502 | – | 3.597 | 3.063 | 2.646
101.33 kPa, x1 = 0.4012 | – | 3.748 | 3.198 | 2.769
101.33 kPa, x1 = 0.4501 | – | 3.852 | 3.3 | 2.859
101.33 kPa, x1 = 0.5 | – | 3.921 | 3.37 | 2.914
101.33 kPa, x1 = 0.5502 | – | 3.942 | 3.398 | 2.938
101.33 kPa, x1 = 0.6018 | – | 3.906 | 3.382 | 2.928
101.33 kPa, x1 = 0.655 | – | 3.825 | 3.327 | 2.894
101.33 kPa, x1 = 0.7019 | – | 3.765 | 3.281 | 2.869
101.33 kPa, x1 = 0.7551 | – | 3.688 | 3.226 | 2.832
101.33 kPa, x1 = 0.807 | – | 3.606 | 3.167 | 2.797
101.33 kPa, x1 = 0.845 | – | 3.554 | 3.13 | 2.768
101.33 kPa, x1 = 0.9015 | – | 3.495 | 3.077 | 2.733
101.33 kPa, x1 = 0.95 | – | 3.44 | 3.044 | 2.703

CCOCCO + O=C1CCCCC1
298.15 K, 101 kPa
Conditions | viscosity [mPa·s]
x2 = 0.0926 | 1.684
x2 = 0.1867 | 1.587
x2 = 0.2824 | 1.529
x2 = 0.3797 | 1.494
x2 = 0.4787 | 1.469
x2 = 0.5793 | 1.472
x2 = 0.6818 | 1.506
x2 = 0.786 | 1.564
x2 = 0.892 | 1.691

CCCCCCCCBr + ClC(Cl)(Cl)Cl
101 kPa
Conditions | viscosity [mPa·s]
293.15 K, x1 = 0.0483 | 0.9339
293.15 K, x1 = 0.0969 | 0.9701
293.15 K, x1 = 0.1945 | 1.037
293.15 K, x1 = 0.3916 | 1.173
293.15 K, x1 = 0.5916 | 1.295
293.15 K, x1 = 0.7943 | 1.404
303.55 K, x1 = 0.0608 | 0.87
303.55 K, x1 = 0.0978 | 0.893
303.55 K, x1 = 0.1964 | 0.955
303.55 K, x1 = 0.3775 | 1.08
303.55 K, x1 = 0.5801 | 1.18
303.55 K, x1 = 0.8407 | 1.307
313.65 K, x1 = 0.0482 | 0.7513
313.65 K, x1 = 0.0973 | 0.7763
313.65 K, x1 = 0.1952 | 0.8276
313.65 K, x1 = 0.3945 | 0.9359
313.65 K, x1 = 0.5771 | 1.022
313.65 K, x1 = 0.7616 | 1.097

CCOCCO + C1CCCCC1
viscosity [mPa·s]
Conditions | 298.15 K | 303.15 K | 308.15 K | 313.15 K
101 kPa, x1 = 0.0542 | 0.903 | – | 0.755 | –
101 kPa, x1 = 0.1507 | 0.92 | – | 0.775 | –
101 kPa, x1 = 0.2541 | 0.952 | – | 0.805 | –
101 kPa, x1 = 0.3508 | 0.996 | – | 0.841 | –
101 kPa, x1 = 0.452 | 1.057 | – | 0.888 | –
101 kPa, x1 = 0.5 | 1.093 | – | 0.915 | –
101 kPa, x1 = 0.5497 | 1.135 | – | 0.945 | –
101 kPa, x1 = 0.6534 | 1.24 | – | 1.019 | –
101 kPa, x1 = 0.7527 | 1.368 | – | 1.105 | –
101 kPa, x1 = 0.8492 | 1.524 | – | 1.206 | –
101 kPa, x1 = 0.9552 | 1.741 | – | 1.341 | –
101.33 kPa, x1 = 0.0993 | 0.864 | 0.787 | 0.724 | 0.663
101.33 kPa, x1 = 0.2013 | 0.91 | 0.827 | 0.755 | 0.696
101.33 kPa, x1 = 0.2968 | 0.961 | 0.875 | 0.798 | 0.731
101.33 kPa, x1 = 0.4007 | 1.035 | 0.938 | 0.852 | 0.786
101.33 kPa, x1 = 0.495 | 1.112 | 1.004 | 0.884 | 0.837
101.33 kPa, x1 = 0.5998 | 1.211 | 1.093 | 0.992 | 0.899
101.33 kPa, x1 = 0.6974 | 1.341 | 1.2 | 1.085 | 0.977
101.33 kPa, x1 = 0.808 | 1.496 | 1.341 | 1.206 | 1.094
101.33 kPa, x1 = 0.9006 | 1.714 | 1.527 | 1.371 | 1.231
